Assay results from the supplement of paper PMC10307832.

Experiments:
Assay in all cases: relative viability (nuclei count vs DMSO), 5 days (fraction); higher = more cells survive
Nelarabine + Linsitinib = compound: COc1nc(N)nc2c1ncn2[C@@H]1O[C@H](CO)[C@@H](O)[C@@H]1O [Nelarabine] + C[C@]1(O)C[C@@H](c2nc(-c3ccc4ccc(-c5ccccc5)nc4c3)c3c(N)nccn32)C1 [Linsitinib] (partner 1 µM)
How it was run: (§1)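 Dosing by pin tool came one day after lung cancer cell lines were seeded in 1536-well plates, using either one drug or a fixed anchor-drug dose plus five library-drug doses (not always all listed) in √10 steps. After 5 days, nuclei were counted on 4× images. Relative viability is treated-well nuclei count divided by vehicle-well nuclei count, and values are medians of duplicate plates.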

Adavosertib + Phenformin = compound: C=CCn1c(=O)c2cnc(Nc3ccc(N4CCN(C)CC4)cc3)nc2n1-c1cccc(C(C)(C)O)n1 [Adavosertib] + N=C(N)NC(=N)NCCc1ccccc1 [Phenformin] (partner 250 µM)
How it was run: as §1

Adavosertib + Decitabine = compound: C=CCn1c(=O)c2cnc(Nc3ccc(N4CCN(C)CC4)cc3)nc2n1-c1cccc(C(C)(C)O)n1 [Adavosertib] + Nc1ncn([C@H]2C[C@H](O)[C@@H](CO)O2)c(=O)n1 [Decitabine] (partner 2 µM)
How it was run: as §1

Adavosertib + Luminespib = compound: C=CCn1c(=O)c2cnc(Nc3ccc(N4CCN(C)CC4)cc3)nc2n1-c1cccc(C(C)(C)O)n1 [Adavosertib] + CCNC(=O)c1noc(-c2cc(C(C)C)c(O)cc2O)c1-c1ccc(CN2CCOCC2)cc1 [Luminespib] (partner 0.01 µM)
How it was run: as §1

Row | Cell Line | relative viability (Nelarabine + Linsitinib; first compound 0.01 µM) | relative viability (Nelarabine + Linsitinib; first compound 0.03162 µM) | relative viability (Nelarabine + Linsitinib; first compound 0.1 µM) | relative viability (Nelarabine + Linsitinib; first compound 0.3162 µM) | relative viability (Nelarabine + Linsitinib; first compound 1 µM) | relative viability (Adavosertib + Phenformin; first compound 0.01 µM) | relative viability (Adavosertib + Phenformin; first compound 0.03162 µM) | relative viability (Adavosertib + Phenformin; first compound 0.1 µM) | relative viability (Adavosertib + Phenformin; first compound 0.3162 µM) | relative viability (Adavosertib + Decitabine; first compound 0.01 µM) | relative viability (Adavosertib + Decitabine; first compound 0.03162 µM) | relative viability (Adavosertib + Decitabine; first compound 0.1 µM) | relative viability (Adavosertib + Decitabine; first compound 0.3162 µM) | relative viability (Adavosertib + Luminespib; first compound 0.01 µM) | relative viability (Adavosertib + Luminespib; first compound 0.03162 µM) | relative viability (Adavosertib + Luminespib; first compound 0.1 µM) | relative viability (Adavosertib + Luminespib; first compound 0.3162 µM)
1 | NCI-H727 | 0.28 | 0.331 | 0.299 | 0.306 | 0.271 | 0.543 | 0.593 | 0.531 | 0.565 | 0.843 | 0.845 | 0.899 | 0.909 | 0.299 | 0.363 | 0.301 | 0.24
2 | NCI-H2085 | 1.3 | 0.747 | 0.848 | 0.883 | 0.867 | 0.668 | 0.757 | 0.784 | 0.761 | 0.547 | 0.504 | 0.574 | 0.47 | 0.61 | 0.411 | 0.46 | 0.35
3 | A-427 | 1.03 | 1.12 | 1.11 | 1.15 | 1.06 | 0.337 | 0.289 | 0.297 | 0.255 | 0.53 | 0.554 | 0.55 | 0.469 | 0.877 | 1 | 1.05 | 0.634
4 | LC-2-ad | 0.919 | 0.832 | 0.823 | 0.758 | 0.797 | 0.565 | 0.635 | 0.621 | 0.597 | 0.696 | 0.733 | 0.87 | 0.889 | 1.01 | 1.11 | 1.26 | 1.08
5 | LU99A | 0.534 | 0.461 | 0.669 | 0.581 | 0.617 | 0.963 | 0.808 | 0.982 | 0.826 | 0.942 | 0.912 | 0.846 | 0.69 | 0.314 | 0.188 | 0.221 | 0.198
6 | 201T | 1.18 | 0.942 | 1.07 | 0.958 | 0.96 | 0.453 | 0.441 | 0.467 | 0.453 | 0.851 | 0.877 | 0.898 | 0.971 | 1.1 | 1.04 | 1.05 | 1.09
7 | NCI-H650 | 0.927 | 0.947 | 0.868 | 0.874 | 1 | 0.422 | 0.498 | 0.458 | 0.377 | 0.352 | 0.319 | 0.342 | 0.286 | 0.76 | 0.842 | 0.841 | 0.673
8 | NCI-H2023 | 0.7 | 0.854 | 0.554 | 0.625 | 0.561 | 0.437 | 0.389 | 0.358 | 0.193 | 0.203 | 0.224 | 0.191 | 0.141 | 0.8 | 0.771 | 0.441 | 0.31
9 | LK-2 | 1.24 | – | 0.608 | 0.691 | 0.673 | 0.75 | 0.435 | 0.364 | 0.397 | 0.254 | 0.346 | 0.349 | 0.412 | 0.163 | 0.216 | 0.182 | 0.183
10 | BEN | 1.27 | 0.818 | 1 | 1.04 | 1.07 | 0.277 | 0.261 | 0.299 | 0.25 | 0.684 | 0.69 | 0.768 | 0.783 | 0.195 | 0.501 | 0.413 | 0.389
11 | EPLC-272H | 1.35 | 1.11 | 1.18 | 1.09 | 1.21 | 0.314 | 0.306 | 0.353 | 0.245 | 0.355 | 0.344 | 0.448 | 0.308 | 0.225 | 0.549 | 0.196 | 0.182
12 | NCI-H1975 | 1.19 | 1.03 | 1.12 | 1.09 | 1.15 | 0.419 | 0.392 | 0.389 | 0.309 | 0.37 | 0.412 | 0.439 | 0.399 | 0.16 | 0.17 | 0.188 | 0.176
13 | HCC-827 | 0.922 | 0.826 | 0.877 | 0.772 | 0.666 | 0.391 | 0.434 | 0.46 | 0.387 | 0.15 | 0.344 | 0.341 | 0.214 | 0.598 | 0.774 | 0.42 | 0.667
14 | LCLC-97TM1 | 0.222 | 0.163 | 0.242 | 0.225 | 0.186 | 0.428 | 0.397 | 0.488 | 0.417 | 0.262 | 0.264 | 0.246 | 0.221 | 0.78 | 0.54 | 0.982 | 0.804
15 | NCI-H2126 | 0.71 | 0.824 | 0.754 | 0.711 | 0.689 | 0.525 | 0.538 | 0.531 | 0.568 | 0.518 | 0.596 | 0.512 | 0.568 | 0.831 | 0.832 | 0.897 | 0.93
16 | PC-14 | 1.03 | 0.96 | 0.986 | 0.979 | 1.03 | 0.508 | 0.619 | 0.671 | 0.291 | 0.249 | 0.226 | 0.259 | 0.101 | 0.151 | 0.165 | 0.219 | 0.141
17 | NCI-H1355 | 1.04 | 0.688 | 0.739 | 0.822 | 0.887 | 0.474 | 0.455 | 0.426 | 0.403 | 0.347 | 0.351 | 0.396 | 0.368 | 0.671 | 0.644 | 0.617 | 0.631
